Measured values: patent US8809364B2, “Polycyclic aryl substituted triazoles and polycyclic heteroaryl substituted triazoles useful as axl inhibitors” (priority 2007, dated 2014)

Molecular target: T1, Axl (Homo sapiens, UniProt P30530)
T1 construct: endogenous in cells; host or cells: HeLa cells
T1 sequence (P30530 26-894): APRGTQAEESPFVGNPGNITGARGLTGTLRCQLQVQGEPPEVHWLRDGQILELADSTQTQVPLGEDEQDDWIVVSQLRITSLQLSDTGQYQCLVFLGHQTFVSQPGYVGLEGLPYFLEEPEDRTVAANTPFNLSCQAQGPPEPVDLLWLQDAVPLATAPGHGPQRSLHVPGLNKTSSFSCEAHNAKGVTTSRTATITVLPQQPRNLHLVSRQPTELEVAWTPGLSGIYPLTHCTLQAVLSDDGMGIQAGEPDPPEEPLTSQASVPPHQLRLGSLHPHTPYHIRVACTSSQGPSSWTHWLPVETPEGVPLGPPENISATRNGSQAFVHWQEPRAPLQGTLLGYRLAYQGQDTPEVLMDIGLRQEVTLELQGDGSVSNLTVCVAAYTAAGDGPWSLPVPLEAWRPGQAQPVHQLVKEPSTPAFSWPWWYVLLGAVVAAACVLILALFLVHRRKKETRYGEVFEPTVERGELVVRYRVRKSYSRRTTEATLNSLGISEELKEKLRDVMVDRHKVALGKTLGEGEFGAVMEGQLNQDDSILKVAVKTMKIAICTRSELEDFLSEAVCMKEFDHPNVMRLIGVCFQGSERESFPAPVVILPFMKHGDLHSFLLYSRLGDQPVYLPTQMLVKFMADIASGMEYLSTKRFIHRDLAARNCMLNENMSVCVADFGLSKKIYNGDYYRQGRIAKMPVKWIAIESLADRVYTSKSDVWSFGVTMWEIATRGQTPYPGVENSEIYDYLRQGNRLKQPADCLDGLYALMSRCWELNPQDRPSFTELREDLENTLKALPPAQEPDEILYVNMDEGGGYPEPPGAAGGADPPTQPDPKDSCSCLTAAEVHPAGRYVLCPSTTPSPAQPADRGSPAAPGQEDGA
Assay: Phospho-Akt In-Cell Western Assay (inhibition of Axl activity)
Type: cell-based
Conditions: Hela cells, Axl antibody cross-linking stimulation, phospho-Akt chemiluminescence normalized to cell number; compound of formula (Ib), Table 2
Experimental: The compounds of the invention were tested in the following assay for their ability to inhibit Axl activity.
Phospho-Akt In-Cell Western Assay
• Cell culture plate: 96 well assay plate (Corning 3610), white, clear bottom, tissue-culture treated. • Cells: Hela cells. • Starvation medium: For Axl stimulation: 0.5% FCS (fetal calf serum) in DMEM, plus Axl/Fc (extracellular domain of AXL fused to immunoglobulin Fc region) (R&D, 154-AL) 500 ng/mL. • For EGF (epidermal growth factor) stimulation: 0.5% FCS in DMEM (Dulbecco's modified Eagles medium). • Poly-L-Lysine 0.01% solution (the working solution): 10 μg/ml, dilute In PBS (phosphate buffered saline). • Axl antibody cross-linking: • 1st: Mouse anti-Axl (R&D, MAB154). • 2nd: Biotin-SP-conjugated AffiniPure goat anti-mouse IgG (H+L) (Jackson ImmunoResearch #115-065-003). • Fixing buffer: 4% formaldehyde in PBS. • Wash buffer: 0.1% TritonX-100 in PBS. • Quenching buffer: 3% H2O2, 0.1% Azide in wash buffer, Azide and hydrogen peroxide (H2O2) are added fresh. • Blocking buffer: 5% BSA in TBST (tris buffered saline plus 0.1% Tween 20). • Primary antibody: Rabbit anti-human Phospho-Akt antibody (Cell Signaling 9271): 1×250 diluted in blocking buffer. • Secondary antibody: HRP (horse radish peroxidase)-conjugated Goat anti-Rabbit secondary, stock solution: Jackson ImmunoResearch (Goat anti-Rabbit HRP, #111-035-144) 1:1 diluted in glycerol, store at −20° C. The working solution: 1×2000 dilution of stock in blocking buffer. • Chemiluminescent working solution (Pierce, 37030): SuperSignal ELISA (enzyme linked immunosorbant assay) Pico Chemiluminescent substrate. • Crystal Violet solution: Stock: 2.5% Crystal violet in methanol, filtered and kept at ambient temperature. The working solution: dilute the stock 1:20 with PBS immediately before use. • 10% SDS: working solution: 5% SDS (sodium dodecylsulfate), diluted in PBS Methods: Day 1:
A 96 well TC (tissue culture treated) plate was coated with 10 μg/mL poly-L-Lysine at 37° C. for 30 min, washed twice with PBS, and air-dried for 5 minutes before cells were added. Hela cells were seeded at 10,000 cells/well and the cells were starved in 100 μL starvation medium containing Axl/Fc for 24 hrs.
The cells were pre-treated with test compounds by adding 100 μL of 2× test compound to the starvation medium on the cells. The cells were incubated at 37° C. for 1 hr before stimulation.
The cells were stimulated by Axl-antibody cross-linking as follows: A 5×1^St/2nd Axl antibody mixture was made (37.5 μg/mL 1st/100 μg/mL 2nd) in starvation medium and nutated at 4° C. with thorough mixing for 1-2 hours for clustering. The resulting mix was warmed to 37° C. 50 μL of 5×Axl 1st/2nd of antibody cluster was added to the cells and the cells were incubated at 37° C. for 5 min.
After 5 minutes stimulation, the plate was flicked to remove medium and the plate was tapped onto paper towels. Formaldehyde (4.0% in PBS, 100 μL) was added to fix the cells and the cells were incubated at ambient temperature for 20 min without shaking.
The cells were washed with a plate washer buffer to remove the formaldehyde solution. The plate was flicked to removed excess wash buffer and tapped onto paper towels. Quenching buffer (100 μL) was added to each well and the cells were incubated at ambient temperature for 20 minutes without shaking.
The cells were washed with a plate washer buffer to remove the quenching buffer. Blocking buffer (100 μL) was added and the cells were incubated at ambient temperature for at least an hour with gentle shaking.
The cells were washed with a plate washer buffer and diluted primary antibody (50 μL) was added to each well (blocking buffer was added to the negative control wells instead). The plates were incubated overnight at 4° C. with gentle shaking.
The wash buffer was removed, diluted secondary antibody (100 μL) was added, and the cells were incubated at ambient temperature for 1 hour with gentle shaking. […]

Question: With `Nc1nc(Nc2ccc3c(c2)C(=O)NCCCC3)n(-c2cc3c(nn2)-c2ccccc2CCC3)n1` [Compound 15, 1-(6,7-dihydro-5H-benzo[6,7]cyclohepta[1,2-c]pyridazin-3-yl)-N^5-(1(2H)-oxo-3,4,5,6-tetrahydrobenzo[c]azocin-9-yl)-1H-1,2,4-triazole-3,5-diamine] as the compound, how does the IC50 read?
Answer: 1000 to 10000 nM

Same assay, conditions: Hela cells, Axl antibody cross-linking stimulation, phospho-Akt chemiluminescence normalized to cell number; compounds of formula (Ia), Table 1

Question: `Nc1nc(Nc2ccc3c(c2)CNCCCC3)nn1-c1cc2c(nn1)-c1ccccc1CCC2` [Compound 13, 1-(6,7-dihydro-5H-benzo[6,7]cyclohepta[1,2-c]pyridazin-3-yl)-N^3-(1,2,3,4,5,6-hexahydrobenzo[c]azocin-9-yl)-1H-1,2,4-triazole-3,5-diamine] was tested. Which IC50 did it give?
Answer: 1000 to 10000 nM

Question: How did the IC50 turn out when `Nc1nc(Nc2ccc3c(c2)CCCN(C2CCCC2)CC3)nn1-c1cc2c(nn1)-c1ccccc1CCC2` [Compound 2, 1-(6,7-dihydro-5H-benzo[6,7]cyclohepta[1,2-c]pyridazin-3-yl)-N^3-(3-cyclopentyl-1,2,3,4,5,6-hexahydrobenzo[d]azocin-8-yl)-1H-1,2,4-triazole-3,5-diamine] was run?
Answer: 1000 to 10000 nM

Question: `CON=C1CCCc2ncc(Nc3nc(N)n(-c4cc5c(nn4)-c4ccccc4CCC5)n3)cc2CC1` (racemic) [Compound 8, 1-(6,7-dihydro-5H-benzo[6,7]cyclohepta[1,2-c]pyridazin-3-yl)-N^3-(7-(methoxyimino)-5,6,7,8,9,10-hexahydrocycloocta[b]pyridin-3-yl)-1H-1,2,4-triazole-3,5-diamine] was tested. Which IC50 did it give?
Answer: 1000 to 10000 nM

Question: `Nc1nc(Nc2ccc3c(c2)CCC2(CC3)OCCO2)nn1-c1ncnc2c1CCCCCC2` [Compound 14, 1-(5,6,7,8,9,10-hexahydrocycloocta[d]pyrimidin-4-yl)-N^3-(5,6,8,9-tetrahydrospiro[benzo[7]annulene-7,2′-[1,3]dioxolane]-3-yl)-1H-1,2,4-triazole-3,5-diamine] was tested. Which IC50 did it give?
Answer: 1000 to 10000 nM

Question: For `Nc1nc(Nc2cnc3c(c2)CCC(=O)CCC3)nn1-c1cc2c(nn1)-c1ccccc1CCC2` [Compound 6, 1-(6,7-dihydro-5H-benzo[6,7]cyclohepta[1,2-c]pyridazin-3-yl)-N^3-(7-oxo-5,6,8,9,10-pentahydrocycloocta[b]pyridin-3-yl)-1H-1,2,4-triazole-3,5-diamine], which IC50 is on record?
Answer: < 1000 nM

Question: For `Nc1nc(Nc2ccc3c(c2)CC(N2CCCC2)CCCC3)nn1-c1cc2c(nn1)-c1ccccc1CCC2` (centres unmarked) [Compound 5, 1-(6,7-dihydro-5H-benzo[6,7]cyclohepta[1,2-c]pyridazin-3-yl)-N^3-(6-pyrrolidin-1-yl-5,6,7,8,9,10-hexahydrobenzo[8]annulene-3-yl)-1H-1,2,4-triazole-3,5-diamine], which IC50 is on record?
Answer: 1000 to 10000 nM

Question: With `Nc1nc(Nc2cnc3c(c2)CCC(N2CCCC2)CCC3)nn1-c1cc2c(nn1)-c1ccccc1CCC2` (centres unmarked) [Compound 7, 1-(6,7-dihydro-5H-benzo[6,7]cyclohepta[1,2-c]pyridazin-3-yl)-N^3-(7-(pyrrolidin-1-yl)-5,6,7,8,9,10-hexahydrocycloocta[b]pyridin-3-yl)-1H-1,2,4-triazole-3,5-diamine] as the compound, how does the IC50 read?
Answer: < 1000 nM

Question: For `Nc1nc(Nc2ccc3c(c2)C(=O)NCCCC3)nn1-c1cc2c(nn1)-c1ccccc1CCC2` [Compound 11, 1-(6,7-dihydro-5H-benzo[6,7]cyclohepta[1,2-c]pyridazin-3-yl)-N^3-(1(2H)-oxo-3,4,5,6-tetrahydrobenzo[c]azocin-9-yl)-1H-1,2,4-triazole-3,5-diamine], which IC50 is on record?
Answer: 1000 to 10000 nM

Question: Which IC50 does the source give for `Nc1nc(Nc2ccc3c(c2)CCN(C2CCCC2)CCC3)nn1-c1cc2c(nn1)-c1ccccc1CCC2` [Compound 3, 1-(6,7-dihydro-5H-benzo[6,7]cyclohepta[1,2-c]pyridazin-3-yl)-N^3-(3-cyclopentyl-1,2,3,4,5,6-hexahydrobenzo[d]azocin-9-yl)-1H-1,2,4-triazole-3,5-diamine] here?
Answer: < 1000 nM

Question: Which IC50 does the source give for `Nc1nc(Nc2cnc3c(c2)CCC(=O)CCC3)nn1-c1cc(-c2ccncc2)c2c(n1)C1CCN2CC1` [Compound 10, 1-(1,4-ethano-8-pyridin-4-yl-1,2,3,4-tetrahydro-1,5-naphthyridin-6-yl)-N^3-(7-oxo-5,6,7,8,9,10-hexahydrocycloocta[b]pyridin-3-yl)-1H-1,2,4-triazole-3,5-diamine] here?
Answer: < 1000 nM

Question: For `Nc1nc(Nc2ccc3c(c2)CCC(=O)NCC3)nn1-c1cc2c(nn1)-c1ccccc1CCC2` [Compound 1, 1-(6,7-dihydro-5H-benzo[6,7]cyclohepta[1,2-c]pyridazin-3-yl)-N^3-(4(1H)-oxo-2,3,5,6-tetrahydrobenzo[d]azocin-8-yl)-1H-1,2,4-triazole-3,5-diamine], which IC50 is on record?
Answer: < 1000 nM

Question: Which IC50 does the source give for `Nc1nc(Nc2ccc3c(c2)CC2CCC(C3)C2N2CCCC2)nn1-c1cc2c(nn1)-c1ccccc1CCC2` (centres unmarked) [Compound 4, 1-(6,7-dihydro-5H-benzo[6,7]cyclohepta[1,2-c]pyridazin-3-yl)-N^3-(7-pyrrolidin-1-yl-6,8-ethano-6,7,8,9-tetrahydro-5H-benzo[7]annulene-3-yl)-1H-1,2,4-triazole-3,5-diamine] here?
Answer: < 1000 nM

Question: `Nc1nc(Nc2cnc3c(c2)CCC(O)CCC3)nn1-c1cc2c(nn1)-c1ccccc1CCC2` (centres unmarked) [Compound 9, 1-(6,7-dihydro-5H-benzo[6,7]cyclohepta[1,2-c]pyridazin-3-yl)-N^3-(7-hydroxy-5,6,7,8,9,10-hexahydrocycloocta[b]pyridin-3-yl)-1H-1,2,4-triazole-3,5-diamine] was tested. Which IC50 did it give?
Answer: 1000 to 10000 nM
